Experimental findings from PubChem BioAssay (NCI) are described below.

Test systems include 786-0 renal; CCRF-CEM leukemia; HCC-2998 colon; HCT-15 colon; HL-60(TB) leukemia; HS 578T breast; HT29 colon; IGROV1 ovarian; K-562 leukemia; MDA-MB-435; OVCAR-3 ovarian; OVCAR-4 ovarian; OVCAR-8 ovarian; PC-3 prostate; SF-295 CNS; SK-MEL-2 melanoma; SK-MEL-28 melanoma; SNB-75 CNS; TK-10 renal; LOX IMVI melanoma.
What all share (assay): DTP human tumour cell line panel, 48 h

SMILES strings stand for the structures.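 Growth conditions: 96-well plates. Treatment: test compound, 48 hours, 5 concentrations. Analysis: linear interpolation between bracketing concentrations; unreached endpoints set to highest concentration. TGI: total growth inhibition.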

As a reminder, the TGI is the concentration giving total growth inhibition. Read a high TGI as less potent growth arrest. With `Cc1ccc(-n2[nH]nc(C#N)c2=O)cc1`, the TGI in the assay on 786-0 renal, with CCRF-CEM leukemia, with HCC-2998 colon, in the assay on HCT-15 colon, with HL-60(TB) leukemia and in the assay with HS 578T breast was above 100 µM throughout. The TGI in the assay with HT29 colon, in the assay with IGROV1 ovarian, in the assay on K-562 leukemia, in the assay on MDA-MB-435, with OVCAR-3 ovarian and in the assay with OVCAR-4 ovarian was above 100 µM throughout. The total growth inhibition concentration (TGI) in the assay with OVCAR-8 ovarian, in the assay on PC-3 prostate, in the assay with SF-295 CNS, in the assay with SK-MEL-2 melanoma, with SK-MEL-28 melanoma and in the assay on SNB-75 CNS was above 100 µM throughout. For the same compound, in the assay on TK-10 renal, the TGI is above 100 µM.
Take `COc1ccc(/C=C2\N=C(c3ccccc3)N(N=C3NC(=O)CC(=O)N3)C2=O)cc1`: the TGI in the assay on 786-0 renal, in the assay with CCRF-CEM leukemia, in the assay on HCC-2998 colon, in the assay with HCT-15 colon, with HL-60(TB) leukemia and in the assay with HS 578T breast was above 100 µM throughout. The TGI with HT29 colon, with IGROV1 ovarian, in the assay on K-562 leukemia, in the assay with MDA-MB-435, in the assay on OVCAR-3 ovarian and in the assay with OVCAR-4 ovarian was above 100 µM each time. For the same compound, the concentration for total growth inhibition (TGI) with OVCAR-8 ovarian, in the assay with PC-3 prostate, with SK-MEL-2 melanoma, in the assay on SK-MEL-28 melanoma, in the assay with SNB-75 CNS and with TK-10 renal was above 100 µM each time.
In the case of `CC1OC2(CC(OCc3ccccc3)C1OCc1ccccc1)OCCO2` (configuration not stated), the TGI was above 100 µM in the assay with 786-0 renal; above 100 µM in the assay on CCRF-CEM leukemia; above 100 µM in the assay on HCC-2998 colon; 90.5 µM with HCT-15 colon; 48.9 µM with HL-60(TB) leukemia; above 100 µM in the assay with HS 578T breast. For the same compound, the TGI in the assay on HT29 colon is 58.2 µM; in the assay with IGROV1 ovarian, above 100 µM; with K-562 leukemia, above 100 µM; in the assay with LOX IMVI melanoma, above 100 µM; with MDA-MB-435, above 100 µM; with OVCAR-3 ovarian, above 100 µM. In addition, the TGI in the assay on OVCAR-4 ovarian, with OVCAR-8 ovarian, in the assay with PC-3 prostate, in the assay on SF-295 CNS, in the assay with SK-MEL-2 melanoma and in the assay with SK-MEL-28 melanoma was above 100 µM throughout. This compound also registered a total growth inhibition concentration (TGI) in the assay on TK-10 renal above 100 µM.
Turning to `Cn1/c(=N\S(=O)(=O)c2ccccc2)n(S(=O)(=O)c2ccccc2)c2ccccc21`, the TGI was above 100 µM in the assay on 786-0 renal; 83.3 µM in the assay on CCRF-CEM leukemia; above 100 µM with HCT-15 colon; 7.16 µM with HL-60(TB) leukemia; above 100 µM with HS 578T breast; above 100 µM in the assay on HT29 colon. Also, the TGI in the assay on IGROV1 ovarian, in the assay on K-562 leukemia, in the assay with LOX IMVI melanoma, in the assay with MDA-MB-435, in the assay on OVCAR-3 ovarian and in the assay with OVCAR-4 ovarian was above 100 µM each time. Also, the TGI in the assay on OVCAR-8 ovarian, with PC-3 prostate, in the assay with SF-295 CNS, in the assay on SK-MEL-2 melanoma, with SK-MEL-28 melanoma and in the assay with SNB-75 CNS was above 100 µM throughout. Further, the total growth inhibition concentration (TGI) in the assay on TK-10 renal was above 100 µM.
With `COc1cc(COC(=O)N(CC(=O)O)c2ccccc2)c([N+](=O)[O-])cc1OC`, the total growth inhibition concentration (TGI) in the assay with 786-0 renal, with CCRF-CEM leukemia, with HCC-2998 colon, with HCT-15 colon, with HL-60(TB) leukemia and in the assay on HS 578T breast was above 100 µM each time. Also, the concentration for total growth inhibition (TGI) in the assay with HT29 colon, with IGROV1 ovarian, in the assay on K-562 leukemia, in the assay with MDA-MB-435, in the assay with OVCAR-3 ovarian and with OVCAR-8 ovarian was above 100 µM each time. Besides, the concentration for total growth inhibition (TGI) in the assay with PC-3 prostate, with SF-295 CNS, in the assay on SK-MEL-28 melanoma, with SNB-75 CNS and in the assay on TK-10 renal was above 100 µM throughout.
In the case of `COC1(OC)CC(CO)(CNc2cc(Cl)nc(N)n2)C1`, the TGI in the assay on 786-0 renal, in the assay on CCRF-CEM leukemia, with HCC-2998 colon, in the assay on HCT-15 colon, in the assay with HL-60(TB) leukemia and in the assay on HS 578T breast was above 100 µM in each case. In addition, the TGI in the assay with HT29 colon, in the assay with IGROV1 ovarian, in the assay with K-562 leukemia, in the assay with LOX IMVI melanoma, in the assay on MDA-MB-435 and in the assay on OVCAR-3 ovarian was above 100 µM throughout. Besides, the TGI in the assay on OVCAR-4 ovarian, in the assay with OVCAR-8 ovarian, in the assay on PC-3 prostate, in the assay on SF-295 CNS, with SK-MEL-2 melanoma and in the assay with SK-MEL-28 melanoma was above 100 µM in each case. Further, the total growth inhibition concentration (TGI) with TK-10 renal was above 100 µM.
In the case of `O=C(Cc1nccc2c1[nH]c1ccccc12)OC1C#CCSCC#C/C=C\1` (configuration not stated), the TGI with 786-0 renal, in the assay on CCRF-CEM leukemia, in the assay on HCC-2998 colon, in the assay with HCT-15 colon, in the assay with HL-60(TB) leukemia and in the assay with HS 578T breast was above 100 µM in each case. The TGI with HT29 colon, in the assay with IGROV1 ovarian, in the assay with K-562 leukemia, in the assay with LOX IMVI melanoma, in the assay on MDA-MB-435 and in the assay with OVCAR-3 ovarian was above 100 µM each time. Further, the total growth inhibition concentration (TGI) in the assay with OVCAR-4 ovarian, with OVCAR-8 ovarian, in the assay on PC-3 prostate, with SF-295 CNS, in the assay with SK-MEL-28 melanoma and in the assay on TK-10 renal was above 100 µM each time.
`CCOc1ccc(/C=N/[N+](C)(C)C)cc1OCC`: the concentration for total growth inhibition (TGI) with 786-0 renal, in the assay on CCRF-CEM leukemia, with HCC-2998 colon, with HCT-15 colon, in the assay with HS 578T breast and with HT29 colon was above 10 µM throughout. In addition, the TGI with IGROV1 ovarian, in the assay on K-562 leukemia, in the assay with LOX IMVI melanoma, in the assay on MDA-MB-435, with OVCAR-3 ovarian and in the assay with OVCAR-4 ovarian was above 10 µM in each case. Further, the TGI in the assay with OVCAR-8 ovarian, in the assay with PC-3 prostate, with SF-295 CNS, in the assay on SK-MEL-28 melanoma, in the assay on SNB-75 CNS and with TK-10 renal was above 10 µM each time.
